Results reported in US20030186898A1, “8- (C-beta-D-glucopyranosyl) -7, 3', 4' -trihydroxyflavone, process of isolation thereof, pharmaceutical composition and method for the treatment of diabetes” (priority 2002, published 2003).

Test system: 18 h. fasted Wistar rats
Assay: hypoglycaemic activity in 18 h. fasted Wistar rats
Type: in vivo
Protocol: The compound 8-(C-β-D-glucopyranosyl)-7,3′,4′-trihydroxyflavone has been evaluated for hypoglycaemic activity in 18 h. fasted Wistar rats. […] The mean fall recorded was 24 mg/100 ml. blood, from initial mean of 92 to mean of 68 mg/100 ml. blood.

O=c1cc(-c2ccc(O)c(O)c2)oc2c([C@@H]3O[C@H](CO)[C@@H](O)[C@H](O)[C@H]3O)c(O)ccc12 [8-(C-β-D-glucopyranosyl)-7,3′,4′-trihydroxyflavone]
hypoglycaemic effect (10 mg/kg p. o.): hypoglycaemic effect was recorded in all the treated rats | mean (blood sugar) after treatment (after 10 mg/kg p. o.): 68 mg/100 ml. blood | initial mean (blood sugar) (before treatment with 10 mg/kg p. o.): 92 mg/100 ml. blood | mean fall (blood sugar) (compound at 10 mg/kg p. o.): 24 mg/100 ml. blood
